According to paper PMC13010972 (Chemical communications (Cambridge, England), 2026):

Columns and labels:
[1] = test system: S. enterica; assay: checkerboard assay with colistin; format: cell-based, Salmonella enterica; conditions: R-1 with colistin; FIC < 0.5 indicates synergy
[2] = test system: genes linked to the PhoPQ TCS; conditions: cited from earlier work
[3] = test system: polymyxin-resistant S. enterica strain EG9492; conditions: co-treatment of resistant strain EG9492s; cited from earlier work

## Nc1nc2ccc(OC(F)(F)F)cc2s1 [R-1, riluzole]
[1]
  fractional inhibitory concentration (FIC) value: 0.28
[2]
  expression of genes linked to the PhoPQ TCS: downregulation
[3]
  change in the colistin MIC: ~ 8 fold
